Results: patent US7582627B2, “3-aminoquinazolin-2,4-dione antibacterial agents” (Warner-Lambert Company, priority 2000, dated 2009)
Where a name gives a salt, the structure may show the parent alone.

Row | Compound | melting point [°C]
1 | COc1c(N2C[C@@H](CN)[C@H](F)C2)c(F)cc2c(=O)n(N)c(=O)n(C3CC3)c12.Cl (relative stereo) | 144 to 147
2 | COc1c(N2CC3C(N)CC3(C)C2)c(F)cc2c(=O)n(N)c(=O)n(C3CC3)c12.Cl (stereo not shown) | > 190
3 | COc1c(N2CCC(F)(C(C)N)C2)c(F)cc2c(=O)n(N)c(=O)n(C3CC3)c12.Cl (stereo not shown) | 190 to 192
4 | Cl.Cl.NCC1CCCN(c2nc3c(cc2F)c(=O)n(N)c(=O)n3C2CC2)C1 (stereo not shown) | 152 to 154
5 | C[C@H](N)[C@@H]1CCN(c2c(F)cc3c(=O)n(N)c(=O)n(C4CC4)c3c2Cl)C1.Cl | 164 to 166
6 | Cc1c(N2CCCC(CN)C2)c(F)cc2c(=O)n(N)c(=O)n(C3CC3)c12.Cl (stereo not shown) | 219 to 221
7 | Cl.N[C@@H]1CN(c2c(F)cc3c(=O)n(N)c(=O)n(C4CC4)c3c2Cl)C[C@H]1c1ccccc1 (relative stereo) | 174 to 175
8 | COc1c(N2CCCC2)c(F)cc2c(=O)n(N)c(=O)n(C3CC3)c12.Cl | 92 to 94
9 | CN[C@H]1CCN(c2c(F)cc3c(=O)n(N)c(=O)n(C4CC4)c3c2Cl)C1 (as salt: hydrochloride) [Compound 5, 3-Amino-7-((S)-3-N-methylaminopyrrolidin-1-yl)-8-chloro-1-cyclopropyl-6-fluoro-1H-quinazoline-2,4-dione hydrochloride] | 118 to 120
10 | Cc1c(N2CC[C@@H](C(C)(C)N)C2)c(F)cc2c(=O)n(N)c(=O)n(C3CC3)c12.Cl | 200 to 202
11 | CC(C)n1c(=O)n(N)c(=O)c2cc(F)c(N3CCC(N)C3)c(Cl)c21 (stereo not shown) (as salt: trifluoroacetate) | 151
12 | COc1c(N2CC(C)C(C(C)N)C2)c(F)cc2c(=O)n(N)c(=O)n(C3CC3)c12.Cl (stereo not shown) | 204.5
13 | COc1c(N2CC(CN)C3(CC3)C2)c(F)cc2c(=O)n(N)c(=O)n(C3CC3)c12.Cl (stereo not shown) | 178
14 | COCC1(CN)CCN(c2c(F)cc3c(=O)n(N)c(=O)n(C4CC4)c3c2C)C1.Cl (stereo not shown) | 172 to 177
15 | CS(=O)(=O)NCC1CCN(c2c(F)cc3c(=O)n(N)c(=O)n(C4CC4)c3c2Cl)C1 (stereo not shown) [Compound 74, N-[1-(3-Amino-8-chloro-1-cyclopropyl-6-fluoro-2,4-dioxo-1,2,3,4-tetrahydroquinazolin-7-yl)pyrrolidin-3-ylmethyl]methanesulfonamide] | 109 to 112
16 | Cc1c(N2CCC(C)(N)C2)c(F)cc2c(=O)n(N)c(=O)n(C3CC3)c12.Cl (stereo not shown) | 237 to 240
17 | COc1c(N2CC[C@H]([C@H](C)N)C2)c(F)cc2c(=O)n(N)c(=O)n(C3CC3)c12.Cl | 221 to 223
18 | Cc1c(N2CC3C(N)C3C2)c(F)cc2c(=O)n(N)c(=O)n(C3CC3)c12.Cl (stereo not shown) | 180 to 182
19 | Cc1c(N2CCC(C)(CN)C2)c(F)cc2c(=O)n(N)c(=O)n(C3CC3)c12.Cl (stereo not shown) | 210
20 | C[C@H](N)[C@@H]1CCN(c2nc3c(cc2F)c(=O)n(N)c(=O)n3C2CC2)C1.Cl | > 260
21 | COc1c(N2CCCC(C(C)N)C2)c(F)cc2c(=O)n(N)c(=O)n(C3CC3)c12.Cl (stereo not shown) | 198
22 | COc1c(N2CCC3(CC3N)C2)c(F)cc2c(=O)n(N)c(=O)n(C3CC3)c12.Cl (stereo not shown) | > 250
23 | COc1c(N2CC(N)C(OC)C2)c(F)cc2c(=O)n(N)c(=O)n(C3CC3)c12.Cl (stereo not shown) | > 250
24 | COc1c(N2CC[C@H]([C@@H](C)N)C2)c(F)cc2c(=O)n(N)c(=O)n(C3CC3)c12.Cl [Compound 133] | 228 to 230
25 | CN[C@H](C)[C@@H]1CCN(c2nc3c(cc2F)c(=O)n(N)c(=O)n3C2CC2)C1.Cl | 137 to 139
26 | NC1CCN(c2ccc3c(=O)n(N)c(=O)n(C4CC4)c3c2F)C1.O=C(O)C(F)(F)F (stereo not shown) | 210 to 212
27 | Cc1c(N2CC(C)C(C(C)N)C2)c(F)cc2c(=O)n(N)c(=O)n(C3CC3)c12.Cl (stereo not shown) | 240
28 | Cl.Nn1c(=O)c2cc(F)c(N3CCC(N)(c4ccccc4)C3)c(Cl)c2n(C2CC2)c1=O (stereo not shown) | 198 to 200
